Reference: patent publication US20190256474A1, “N-PHENYL-2-(3-PHENYL-6-OXO-1,6-DIHYDROPYRIDAZIN-1-YL)ACETAMIDE DERIVATIVES FOR TREATING CYSTIC FIBROSIS” (Proteostasis Therapeutics, Inc., priority 2016, published 2019)

Molecular target: T1, ΔF508-CFTR (Homo sapiens, UniProt P13569, DEL508-508)
T1 construct: Primary lung epithelial cells homozygous for the Cystic Fibrosis-causing ΔF508 mutation were differentiated; endogenous in cells; host or cells: primary human bronchial epithelial cells (hBE), ΔF508/ΔF508
Assay: hBE equivalent current (Ieq) assay, CFTR activity
Type: cell-based
Settings: relative to a CFTR amplifier at 3 μM, ΔF508 homozygous hBE, 24 h treatment; for Activity 10 μM: compound at 10 μM; for Activity 3 μM: compound at 3 μM
Protocol: Primary lung epithelial cells homozygous for the Cystic Fibrosis-causing ΔF508 mutation were differentiated for a minimum of 4 weeks in an air-liquid interface on Costar 24 well HTS filter plates prior to the equivalent current (Ieq) measurements. Cells were apically mucus-washed for 30 minutes 24 h prior to treatment with compounds. The basolateral media was removed and replaced with media containing the compound of interest diluted to its final concentration from DMSO stocks. Treated cells were incubated at 37° C. and 5% CO2 for 24 hours. At the end of the treatment period, the media was changed to the Ieq experimental solution for 2 hours before the experiment and plates are maintained in a CO2-free incubator during this period. The plates containing the cells were then placed in pre-warmed heating blocks at 36° C.±0.5 for 15 minutes before measurements are taken. The transepithelial voltage (VT) and conductance (GT) were measured using a custom 24 channel current clamp (TECC-24) with 24 well electrode manifold. The Ieq assay measurements were made following additions with standardized time periods:
1. The baseline VT and GT values were measured for approximately 20 minutes.
2. Benzamil was added to block ENaC for 15 minutes.
3. Forskolin plus VX-770 were added to maximally activate ΔF508-CFTR for 27 minutes.
4. Bumetanide was added to inhibit the NaK2Cl cotransporter and shut-off secretion of chloride.
The activity data captured was the area under the curve (AUC) for the traces of the equivalent chloride current. The AUC was collected from the time of the forskolin/VX-770 addition until the inhibition by bumetanide addition. Correction in response to compound treatment was scored as the increase in the AUC for compound-treated samples over that of vehicle-treated samples.
The results are shown below in Table 1. + indicates activity <150% of a CFTR amplifier with compound at concentration shown and amplifier at 3 μM; ++ indicates activity >150% of a CFTR amplifier with compound at concentration shown and amplifier at 3 μM.

T1 sequence (P13569 with tags, fused parts or gaps DEL508-508): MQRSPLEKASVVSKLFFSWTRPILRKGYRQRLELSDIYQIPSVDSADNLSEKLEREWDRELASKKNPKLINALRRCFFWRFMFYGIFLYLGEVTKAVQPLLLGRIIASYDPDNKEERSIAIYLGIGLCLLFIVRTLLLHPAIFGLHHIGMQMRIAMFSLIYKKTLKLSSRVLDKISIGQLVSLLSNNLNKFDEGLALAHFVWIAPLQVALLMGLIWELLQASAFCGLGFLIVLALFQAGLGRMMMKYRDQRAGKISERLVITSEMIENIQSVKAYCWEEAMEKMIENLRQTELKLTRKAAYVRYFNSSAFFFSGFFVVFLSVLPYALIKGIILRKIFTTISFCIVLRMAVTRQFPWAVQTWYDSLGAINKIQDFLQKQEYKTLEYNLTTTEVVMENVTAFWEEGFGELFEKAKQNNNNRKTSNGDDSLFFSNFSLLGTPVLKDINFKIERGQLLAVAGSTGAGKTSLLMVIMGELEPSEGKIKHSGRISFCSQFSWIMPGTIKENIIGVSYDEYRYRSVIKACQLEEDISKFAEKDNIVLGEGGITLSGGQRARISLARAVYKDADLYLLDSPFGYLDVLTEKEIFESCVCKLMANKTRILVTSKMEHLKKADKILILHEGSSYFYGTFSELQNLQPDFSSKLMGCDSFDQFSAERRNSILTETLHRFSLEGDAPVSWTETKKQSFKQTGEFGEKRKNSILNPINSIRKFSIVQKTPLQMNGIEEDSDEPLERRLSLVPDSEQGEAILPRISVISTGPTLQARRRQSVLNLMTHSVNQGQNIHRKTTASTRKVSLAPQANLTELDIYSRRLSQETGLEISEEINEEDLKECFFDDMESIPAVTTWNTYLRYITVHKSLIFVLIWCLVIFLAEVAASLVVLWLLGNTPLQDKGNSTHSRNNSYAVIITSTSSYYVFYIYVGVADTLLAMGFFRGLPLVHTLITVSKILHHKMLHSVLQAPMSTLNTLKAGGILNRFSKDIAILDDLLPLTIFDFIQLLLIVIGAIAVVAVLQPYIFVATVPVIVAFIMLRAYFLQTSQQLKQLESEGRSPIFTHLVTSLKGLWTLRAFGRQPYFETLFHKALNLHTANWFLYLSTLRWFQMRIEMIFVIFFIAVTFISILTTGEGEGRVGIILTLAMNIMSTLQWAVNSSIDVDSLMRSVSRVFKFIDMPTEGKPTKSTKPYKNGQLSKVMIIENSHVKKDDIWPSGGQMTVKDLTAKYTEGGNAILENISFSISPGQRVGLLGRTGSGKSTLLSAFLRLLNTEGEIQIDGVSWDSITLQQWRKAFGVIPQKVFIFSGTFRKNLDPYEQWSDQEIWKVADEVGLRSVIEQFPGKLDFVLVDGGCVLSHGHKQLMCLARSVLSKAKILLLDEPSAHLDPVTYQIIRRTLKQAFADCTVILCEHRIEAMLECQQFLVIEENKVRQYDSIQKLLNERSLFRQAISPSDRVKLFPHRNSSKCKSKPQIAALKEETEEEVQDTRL

COc1cccc(-c2ccc(=O)n(C(C)C(=O)Nc3ccc(C(C)(C)C)cc3)n2)c1 (stereo not drawn) [Compound 11, N-(4-tert-Butylphenyl)-2-[3-(3-methoxyphenyl)-6-oxo-1,6-dihydropyridazin-1-yl]propanamide]
Activity 10 μM: + (activity <150% of a CFTR amplifier with compound at concentration shown and amplifier at 3 μM)

CC(C(=O)Nc1ccc(C(F)(F)F)cc1)n1nc(-c2ccc(C#N)cc2)ccc1=O (stereo not drawn) [Compound 37, 2-[3-(4-Cyanophenyl)-6-oxo-1,6-dihydropyridazin-1-yl]-N-[4-(trifluoromethyl)phenyl]propanamide]
Activity 3 μM: + (activity <150% of a CFTR amplifier with compound at concentration shown and amplifier at 3 μM) | Activity 10 μM: + (activity <150% of a CFTR amplifier with compound at concentration shown and amplifier at 3 μM)

COc1cccc(-c2ccc(=O)n(C(C)(C)C(=O)Nc3cc(F)cc(F)c3)n2)c1 [Compound 18, N-(3,5-Difluorophenyl)-2-(3-(3-methoxyphenyl)-6-oxopyridazin-1(6H)-yl)-2-methylpropanamide]
Activity 3 μM: + (activity <150% of a CFTR amplifier with compound at concentration shown and amplifier at 3 μM) | Activity 10 μM: + (activity <150% of a CFTR amplifier with compound at concentration shown and amplifier at 3 μM)

COc1cccc(-c2ccc(=O)n(C(C)C(=O)Nc3cccc(Cl)c3)n2)c1 (stereo not drawn) [Compound 13, N-(3-Chlorophenyl)-2-[3-(3-methoxyphenyl)-6-oxo-1,6-dihydropyridazin-1-yl]propanamide]
Activity 3 μM: ++ (activity >150% of a CFTR amplifier with compound at concentration shown and amplifier at 3 μM) | Activity 10 μM: ++ (activity >150% of a CFTR amplifier with compound at concentration shown and amplifier at 3 μM)

COc1cccc(-c2ccc(=O)n(C(C)(C(=O)Nc3ccc(C(F)(F)F)cc3)c3ccccc3)n2)c1 (stereo not drawn) [Compound 54, 2-(3-(3-Methoxyphenyl)-6-oxopyridazin-1(6H)-yl)-2-phenyl-N-(4-(trifluoromethyl)phenyl)propanamide]
Activity 10 μM: + (activity <150% of a CFTR amplifier with compound at concentration shown and amplifier at 3 μM)

CC(C(=O)Nc1cc(F)cc(F)c1)n1nc(-c2cccc(N(C)C)c2)ccc1=O (stereo not drawn) [Compound 4, N-(3,5-Difluorophenyl)-2-[3-[3-(dimethylamino)phenyl]-6-oxo-1,6-dihydropyridazin-1-yl]propanamide]
Activity 10 μM: + (activity <150% of a CFTR amplifier with compound at concentration shown and amplifier at 3 μM)

CCOc1cccc(-c2ccc(=O)n(C(C)C(=O)Nc3ccc(C(F)(F)F)cc3)n2)c1 (stereo not drawn) [Compound 48, 2-[3-(3-Ethoxyphenyl)-6-oxo-1,6-dihydropyridazin-1-yl]-N-[4-(trifluoromethyl)phenyl]propanamide]
Activity 3 μM: ++ (activity >150% of a CFTR amplifier with compound at concentration shown and amplifier at 3 μM) | Activity 10 μM: ++ (activity >150% of a CFTR amplifier with compound at concentration shown and amplifier at 3 μM)

CC(C(=O)Nc1ccc(C(F)(F)F)cc1)n1nc(-c2ccccc2Cl)ccc1=O (stereo not drawn) [Compound 29, 2-[3-(2-Chlorophenyl)-6-oxo-1,6-dihydropyridazin-1-yl]-N-[4-(trifluoromethyl)phenyl]propanamide]
Activity 3 μM: + (activity <150% of a CFTR amplifier with compound at concentration shown and amplifier at 3 μM) | Activity 10 μM: + (activity <150% of a CFTR amplifier with compound at concentration shown and amplifier at 3 μM)

CC(C(=O)Nc1ccc(C(F)(F)F)cc1)n1nc(-c2ccccc2C(F)(F)F)ccc1=O (stereo not drawn) [Compound 32, 2-[6-Oxo-3-[2-(trifluoromethyl)phenyl]-1,6-dihydropyridazin-1-yl]-N-[4-(trifluoromethyl)phenyl]propanamide]
Activity 3 μM: + (activity <150% of a CFTR amplifier with compound at concentration shown and amplifier at 3 μM) | Activity 10 μM: + (activity <150% of a CFTR amplifier with compound at concentration shown and amplifier at 3 μM)

CC(C(=O)Nc1ccc(C(F)(F)F)cc1)n1nc(-c2cccc(Oc3ccccc3)c2)ccc1=O (stereo not drawn) [Compound 51, 2-[3-[3-(Phenoxy)phenyl]-6-oxo-1,6-dihydropyridazin-1-yl]-N-[4-(trifluoromethyl)phenyl]propanamide]
Activity 3 μM: ++ (activity >150% of a CFTR amplifier with compound at concentration shown and amplifier at 3 μM) | Activity 10 μM: ++ (activity >150% of a CFTR amplifier with compound at concentration shown and amplifier at 3 μM)

COc1cccc(-c2ccc(=O)n(C(C)C(=O)Nc3ccc(C(F)(F)F)c(F)c3)n2)c1 (stereo not drawn) [Compound 43, N-[3-Fluoro-4-(trifluoromethyl)phenyl]-2-[3-(3-methoxyphenyl)-6-oxo-1,6-dihydropyridazin-1-yl]propanamide]
Activity 3 μM: ++ (activity >150% of a CFTR amplifier with compound at concentration shown and amplifier at 3 μM) | Activity 10 μM: ++ (activity >150% of a CFTR amplifier with compound at concentration shown and amplifier at 3 μM)

CC(C(=O)Nc1cc(F)cc(F)c1)n1nc(-c2cccc(OC(F)(F)F)c2)ccc1=O (stereo not drawn) [Compound 2, N-(3,5-Ddifluorophenyl)-2-[6-oxo-3-[3-(trifluoromethoxy)phenyl]-1,6-dihydropyridazin-1-yl]propanamide]
Activity 3 μM: + (activity <150% of a CFTR amplifier with compound at concentration shown and amplifier at 3 μM) | Activity 10 μM: + (activity <150% of a CFTR amplifier with compound at concentration shown and amplifier at 3 μM)

COc1cccc(-c2cc(Cl)c(=O)n(C(C)C(=O)Nc3cc(F)cc(F)c3)n2)c1 (stereo not drawn) [Compound 22, 2-(5-Chloro-3-(3-methoxyphenyl)-6-oxopyridazin-1(6H)-yl)-N-(3,5-difluorophenyl)propanamide]
Activity 3 μM: + (activity <150% of a CFTR amplifier with compound at concentration shown and amplifier at 3 μM) | Activity 10 μM: + (activity <150% of a CFTR amplifier with compound at concentration shown and amplifier at 3 μM)

COc1cccc(-c2nn(C(C)C(=O)Nc3cc(F)cc(F)c3)c(=O)cc2C)c1 (stereo not drawn) [Compound 21, N-(3,5-Difluorophenyl)-2-[3-(3-methoxyphenyl)-4-methyl-6-oxo-1,6-dihydropyridazin-1-yl]propanamide]
Activity 3 μM: + (activity <150% of a CFTR amplifier with compound at concentration shown and amplifier at 3 μM) | Activity 10 μM: + (activity <150% of a CFTR amplifier with compound at concentration shown and amplifier at 3 μM)

CC(C(=O)Nc1ccc(C(F)(F)F)cc1)n1nc(-c2cccc(C(F)(F)F)c2)ccc1=O (stereo not drawn) [Compound 33, 2-[6-Oxo-3-[3-(trifluoromethyl)phenyl]-1,6-dihydropyridazin-1-yl]-N-[4-(trifluoromethyl)phenyl]propanamide]
Activity 3 μM: ++ (activity >150% of a CFTR amplifier with compound at concentration shown and amplifier at 3 μM) | Activity 10 μM: ++ (activity >150% of a CFTR amplifier with compound at concentration shown and amplifier at 3 μM)

COc1cccc(-c2ccc(=O)n(C(C)C(=O)Nc3ccccc3)n2)c1 (stereo not drawn) [Compound 15, 2-[3-(3-Methoxyphenyl)-6-oxo-1,6-dihydropyridazin-1-yl]-N-phenylpropanamide]
Activity 3 μM: + (activity <150% of a CFTR amplifier with compound at concentration shown and amplifier at 3 μM) | Activity 10 μM: + (activity <150% of a CFTR amplifier with compound at concentration shown and amplifier at 3 μM)

COc1cccc(-c2ccc(=O)n(C(C)C(=O)Nc3ccc(Cl)c(Cl)c3)n2)c1 (stereo not drawn) [Compound 27, N-(3,4-Dichlorophenyl)-2-[3-(3-methoxyphenyl)-6-oxo-1,6-dihydropyridazin-1-yl]propanamide]
Activity 3 μM: ++ (activity >150% of a CFTR amplifier with compound at concentration shown and amplifier at 3 μM) | Activity 10 μM: ++ (activity >150% of a CFTR amplifier with compound at concentration shown and amplifier at 3 μM)

COc1cccc(-c2cc(C)c(=O)n(C(C)C(=O)Nc3cc(F)cc(F)c3)n2)c1 (stereo not drawn) [Compound 20, N-(3,5-Difluorophenyl)-2-[3-(3-methoxyphenyl)-5-methyl-6-oxo-1,6-dihydropyridazin-1-yl]propanamide]
Activity 3 μM: + (activity <150% of a CFTR amplifier with compound at concentration shown and amplifier at 3 μM) | Activity 10 μM: + (activity <150% of a CFTR amplifier with compound at concentration shown and amplifier at 3 μM)
